In brackets after ≈: the same amount, converted by molar mass.
Columns and labels:
Format in all cases: functional
Aspergillus flavus = assay: Antifungal activity against Aspergillus flavus assessed as growth inhibition by serial dilution method
[1] = system: Mycolicibacterium fortuitum; assay: Antimycobacterial activity against Mycobacterium fortuitum ATCC 19542 assessed as growth inhibition at 1 to 100 ug/mL by resazurin assay
[2] = system: Mycobacterium tuberculosis; assay: Antimycobacterial activity against Mycobacterium tuberculosis H37Rv assessed as growth inhibition at 1 to 100 ug/mL by resazurin assay; details: for MIC: Mycobacterium tuberculosis, H37Rv
[3] = system: Mycolicibacterium smegmatis; assay: Antimycobacterial activity against Mycobacterium smegmatis ATCC 19420 assessed as growth inhibition at 1 to 100 ug/mL by resazurin assay
Candida albicans = assay: Antifungal activity against Candida albicans assessed as growth inhibition by serial dilution method
Klebsiella pneumoniae [4] = assay: Antibacterial activity against Klebsiella pneumoniae assessed as growth inhibition by serial dilution method
Staphylococcus aureus [5] = assay: Antibacterial activity against Staphylococcus aureus assessed as growth inhibition by serial dilution method
[6] = system: Mycobacterium tuberculosis; assay: Antimycobacterial activity against Mycobacterium tuberculosis H37Rv assessed as growth inhibition at 0.3125 to 5 ug/mL by resazurin assay
Rhizopus = assay: Antifungal activity against Rhizopus sp. assessed as growth inhibition by serial dilution method
Escherichia coli = assay: Antibacterial activity against Escherichia coli assessed as growth inhibition by serial dilution method
[7] = system: Mycolicibacterium fortuitum; assay: Antimycobacterial activity against Mycobacterium fortuitum ATCC 19542 assessed as growth inhibition at 0.3125 to 5 ug/mL by resazurin assay
[8] = system: Mycolicibacterium smegmatis; assay: Antimycobacterial activity against Mycobacterium smegmatis ATCC 19420 assessed as growth inhibition at 0.3125 to 5 ug/mL by resazurin assay
Klebsiella pneumoniae [9] = assay: Potency index, ratio of ciprofloxacin MIC to compound MIC for Klebsiella pneumoniae
Staphylococcus aureus [10] = assay: Potency index, ratio of ciprofloxacin MIC to compound MIC for Staphylococcus aureus

| SMILES | MIC (Aspergillus flavus) [µg/mL] | MIC [1] [µg/mL] | growth inhibition (GI) [2] [%] | MIC [2] [µg/mL] | MIC [3] [µg/mL] | MIC (Candida albicans) [µg/mL] | MIC (Klebsiella pneumoniae [4]) [µg/mL] | MIC (Staphylococcus aureus [5]) [µg/mL] | MIC [6] [µg/mL] | MIC (Rhizopus) [µg/mL] | MIC (Escherichia coli) [µg/mL] | MIC [7] [µg/mL] | MIC [8] [µg/mL] | PI (Klebsiella pneumoniae [9]) | PI (Staphylococcus aureus [10]) |
| --- | --- | --- | --- | --- | --- | --- | --- | --- | --- | --- | --- | --- | --- | --- | --- |
| N#Cc1cccc(S(=O)(=O)n2c(COc3ccc([N+](=O)[O-])cc3)nc3cc(Br)ccc32)c1 | 128 (≈ 249 µM) | > 100 | <90 | > 100 | 10 (≈ 19.5 µM) | 64 (≈ 125 µM) | 128 (≈ 249 µM) | 128 (≈ 249 µM) | 5 (≈ 9.74 µM) | 128 (≈ 249 µM) | 64 (≈ 125 µM) |  |  |  |  |
| Cc1c(F)cccc1S(=O)(=O)n1c(COc2ccc([N+](=O)[O-])cc2)nc2cc(Br)ccc21 | 256 (≈ 492 µM) | 10 (≈ 19.2 µM) | <90 | > 100 | > 100 | 128 (≈ 246 µM) | 128 (≈ 246 µM) | 64 (≈ 123 µM) | 10 (≈ 19.2 µM) | 256 (≈ 492 µM) | > 256 | 10 (≈ 19.2 µM) | 10 (≈ 19.2 µM) |  |  |
| O=[N+]([O-])c1ccc(OCc2nc3cc(Br)ccc3n2S(=O)(=O)c2ccccc2Cl)cc1 | 32 (≈ 61.2 µM) | 10 (≈ 19.1 µM) | 90 | 1 (≈ 1.91 µM) | 1 (≈ 1.91 µM) | 8 (≈ 15.3 µM) | 8 (≈ 15.3 µM) | 16 (≈ 30.6 µM) | 0.625 (≈ 1.2 µM) | 16 (≈ 30.6 µM) | 4 (≈ 7.65 µM) | 10 (≈ 19.1 µM) | 1.25 (≈ 2.39 µM) | 1 |  |
| COc1ccc(S(=O)(=O)n2c(COc3ccc([N+](=O)[O-])cc3)nc3cc(Br)ccc32)c(OC)c1 | 128 (≈ 233 µM) | 10 (≈ 18.2 µM) | 90 | 1 (≈ 1.82 µM) | 1 (≈ 1.82 µM) | 128 (≈ 233 µM) | 128 (≈ 233 µM) | 64 (≈ 117 µM) | 1.25 (≈ 2.28 µM) | 256 (≈ 467 µM) | 256 (≈ 467 µM) | 1.25 (≈ 2.28 µM) | 1.25 (≈ 2.28 µM) |  |  |
| Cc1cccc(S(=O)(=O)n2c(COc3ccc([N+](=O)[O-])cc3)nc3cc(Br)ccc32)c1 | > 256 | 10 (≈ 19.9 µM) | 90 | > 100 | 10 (≈ 19.9 µM) | 64 (≈ 127 µM) | > 256 | 128 (≈ 255 µM) | 1.25 (≈ 2.49 µM) | 128 (≈ 255 µM) | 64 (≈ 127 µM) | 10 (≈ 19.9 µM) |  |  |  |
| COc1ccc(OC)c(S(=O)(=O)n2c(COc3ccc([N+](=O)[O-])cc3)nc3ccc(Br)cc32)c1 | 256 (≈ 467 µM) | > 100 | <90 | 10 (≈ 18.2 µM) | 10 (≈ 18.2 µM) | > 256 | 128 (≈ 233 µM) | 256 (≈ 467 µM) | 5 (≈ 9.12 µM) | 128 (≈ 233 µM) | > 256 |  | 10 (≈ 18.2 µM) |  |  |
| O=[N+]([O-])c1ccc(OCc2nc3ccc(Br)cc3n2S(=O)(=O)c2cc(F)ccc2F)cc1 | 64 (≈ 122 µM) | 10 (≈ 19.1 µM) | <90 | 10 (≈ 19.1 µM) | 10 (≈ 19.1 µM) | 128 (≈ 244 µM) | > 256 | 128 (≈ 244 µM) | 2.5 (≈ 4.77 µM) | 256 (≈ 488 µM) | 64 (≈ 122 µM) | 10 (≈ 19.1 µM) | 10 (≈ 19.1 µM) |  |  |
| O=[N+]([O-])c1ccc(OCc2nc3ccc(Br)cc3n2S(=O)(=O)c2ccc(Cl)cc2Cl)cc1 | 128 (≈ 230 µM) | > 100 | 0 | > 100 | > 100 | > 256 | 256 (≈ 459 µM) | 64 (≈ 115 µM) |  | > 256 | > 256 |  |  |  |  |
| O=[N+]([O-])c1ccc(OCc2nc3ccc(Br)cc3n2S(=O)(=O)c2cc(Cl)ccc2Cl)cc1 | 256 (≈ 459 µM) | 10 (≈ 17.9 µM) | 90 | 10 (≈ 17.9 µM) | > 100 | > 256 | 128 (≈ 230 µM) | 64 (≈ 115 µM) | 10 (≈ 17.9 µM) | 128 (≈ 230 µM) | 128 (≈ 230 µM) | 10 (≈ 17.9 µM) |  |  |  |
| O=[N+]([O-])c1ccc(OCc2nc3ccc(Br)cc3n2S(=O)(=O)c2ccccc2[N+](=O)[O-])cc1 | > 256 | 10 (≈ 18.8 µM) | 90 | 1 (≈ 1.88 µM) | 1 (≈ 1.88 µM) | > 256 | 256 (≈ 480 µM) | > 256 | 1.25 (≈ 2.34 µM) | 256 (≈ 480 µM) | 128 (≈ 240 µM) | 1.25 (≈ 2.34 µM) | 1.25 (≈ 2.34 µM) |  |  |
| N#Cc1cccc(S(=O)(=O)n2c(COc3ccc([N+](=O)[O-])cc3)nc3ccc(Br)cc32)c1 | > 256 | > 100 | <90 | > 100 | 10 (≈ 19.5 µM) | 128 (≈ 249 µM) | 256 (≈ 499 µM) | 256 (≈ 499 µM) | 5 (≈ 9.74 µM) | 128 (≈ 249 µM) | > 256 |  |  |  |  |
| Cc1c(F)cccc1S(=O)(=O)n1c(COc2ccc([N+](=O)[O-])cc2)nc2ccc(Br)cc21 | > 256 | > 100 | <90 | 10 (≈ 19.2 µM) | > 100 | 256 (≈ 492 µM) | > 256 | > 256 | 1.25 (≈ 2.4 µM) | 256 (≈ 492 µM) | 256 (≈ 492 µM) |  |  |  |  |
| O=[N+]([O-])c1ccc(OCc2nc3ccc(Br)cc3n2S(=O)(=O)c2ccccc2Cl)cc1 | > 256 | > 100 | 0 | > 100 | > 100 | 128 (≈ 245 µM) | 256 (≈ 490 µM) | 128 (≈ 245 µM) |  | > 256 | > 256 |  |  |  |  |
| COc1ccc(S(=O)(=O)n2c(COc3ccc([N+](=O)[O-])cc3)nc3ccc(Br)cc32)c(OC)c1 | 256 (≈ 467 µM) | > 100 | <90 | 10 (≈ 18.2 µM) | 10 (≈ 18.2 µM) | > 256 | 128 (≈ 233 µM) | > 256 | 2.5 (≈ 4.56 µM) | 128 (≈ 233 µM) | 256 (≈ 467 µM) |  | 2.5 (≈ 4.56 µM) |  |  |
| Cc1cccc(S(=O)(=O)n2c(COc3ccc([N+](=O)[O-])cc3)nc3ccc(Br)cc32)c1 | > 256 | > 100 | <90 | > 100 | 10 (≈ 19.9 µM) | 256 (≈ 510 µM) | > 256 | > 256 | 5 (≈ 9.95 µM) | > 256 | 128 (≈ 255 µM) |  |  |  |  |
| Nc1ccc(OCc2nc3cc(Br)ccc3[nH]2)cc1 | 128 (≈ 402 µM) | > 100 | <90 | 10 (≈ 31.4 µM) | 10 (≈ 31.4 µM) | 64 (≈ 201 µM) | 128 (≈ 402 µM) | 64 (≈ 201 µM) | 5 (≈ 15.7 µM) | 256 (≈ 805 µM) | 128 (≈ 402 µM) |  | 10 (≈ 31.4 µM) |  |  |
| COc1ccc(OC)c(S(=O)(=O)n2c(COc3ccc([N+](=O)[O-])cc3)nc3cc(Br)ccc32)c1 | 64 (≈ 117 µM) | 10 (≈ 18.2 µM) | 90 | 1 (≈ 1.82 µM) | 1 (≈ 1.82 µM) | 128 (≈ 233 µM) | 256 (≈ 467 µM) | 128 (≈ 233 µM) | 1.25 (≈ 2.28 µM) | 256 (≈ 467 µM) | 128 (≈ 233 µM) | 1.25 (≈ 2.28 µM) | 1.25 (≈ 2.28 µM) |  |  |
| O=[N+]([O-])c1ccc(OCc2nc3cc(Br)ccc3n2S(=O)(=O)c2ccc(Cl)cc2Cl)cc1 | 64 (≈ 115 µM) | > 100 | <90 | > 100 | 10 (≈ 17.9 µM) | 128 (≈ 230 µM) | 64 (≈ 115 µM) | 8 (≈ 14.4 µM) | 5 (≈ 8.97 µM) | 128 (≈ 230 µM) | 4 (≈ 7.18 µM) |  |  |  |  |
| O=[N+]([O-])c1ccc(OCc2nc3cc(Br)ccc3n2S(=O)(=O)c2cc(Cl)ccc2Cl)cc1 | 32 (≈ 57.4 µM) | 10 (≈ 17.9 µM) | 90 | > 100 | 10 (≈ 17.9 µM) | 64 (≈ 115 µM) | 8 (≈ 14.4 µM) | 8 (≈ 14.4 µM) | 1.25 (≈ 2.24 µM) | 16 (≈ 28.7 µM) | 4 (≈ 7.18 µM) | 10 (≈ 17.9 µM) |  | 1 |  |
| O=[N+]([O-])c1ccc(OCc2nc3cc(Br)ccc3n2S(=O)(=O)c2ccccc2[N+](=O)[O-])cc1 | 8 (≈ 15 µM) | 10 (≈ 18.8 µM) | 95 | 1 (≈ 1.88 µM) | 1 (≈ 1.88 µM) | 16 (≈ 30 µM) | 4 (≈ 7.5 µM) | 4 (≈ 7.5 µM) | 0.625 (≈ 1.17 µM) | 16 (≈ 30 µM) | 32 (≈ 60 µM) | 10 (≈ 18.8 µM) | 1.25 (≈ 2.34 µM) | 2 | 1 |
| C[C@@H]1[C@H](O)[C@@H](C)/C=C/C=C/C=C/C=C/C=C/C=C/C=C/[C@H](O[C@@H]2O[C@H](C)[C@@H](O)[C@H](N)[C@@H]2O)C[C@@H]2O[C@](O)(C[C@@H](O)C[C@@H](O)[C@H](O)CC[C@@H](O)C[C@@H](O)CC(=O)O[C@H]1C)C[C@H](O)[C@H]2C(=O)O [AMPHOTERICIN B] | 8 (≈ 8.66 µM) |  |  |  |  | 8 (≈ 8.66 µM) |  |  |  | 16 (≈ 17.3 µM) |  |  |  |  |  |
| O=C(O)c1cn(C2CC2)c2cc(N3CCNCC3)c(F)cc2c1=O [CIPROFLOXACIN] |  |  |  |  |  |  | 16 (≈ 48.3 µM) | 8 (≈ 24.1 µM) |  |  |  |  |  |  |  |
| NNC(=O)c1ccncc1 [ISONIAZID] |  | 12.5 (≈ 91.1 µM) | 95 | 0.7 (≈ 5.1 µM) | 50 (≈ 365 µM) |  |  |  | 0.7 (≈ 5.1 µM) |  |  | 12.5 (≈ 91.1 µM) | 50 (≈ 365 µM) |  |  |
| CO[C@H]1/C=C/O[C@@]2(C)Oc3c(C)c(O)c4c(O)c(c(/C=N/N5CCN(C)CC5)c(O)c4c3C2=O)NC(=O)/C(C)=C\C=C\[C@H](C)[C@H](O)[C@@H](C)[C@@H](O)[C@@H](C)[C@H](OC(C)=O)[C@@H]1C [RIFAMPIN] |  | 1.5 (≈ 1.82 µM) | 95 | 0.5 (≈ 0.608 µM) | 1.5 (≈ 1.82 µM) |  |  |  | 0.5 (≈ 0.608 µM) |  |  | 1.5 (≈ 1.82 µM) | 1.5 (≈ 1.82 µM) |  |  |

— ChEMBL document CHEMBL2417425, “Design and synthesis of positional isomers of 5 and 6-bromo-1-[(phenyl)sulfonyl]-2-[(4-nitrophenoxy)methyl]-1H-benzimidazoles as possible antimicrobial and antitubercular agents” (2013)
